The source made the active and inactive calls. How the calls were made is not given here.

The assay concerns Schistosoma mansoni. The experiment in a line: In vitro activity screen on S. mansoni schistosomula at 10 uM. Compound-induced effects were assessed by quantifying larva motility and phenotype using Roboworm. Particulars: Puerto Rican. In kind it is functional, organism-based. Also noted: test concentration 10 uM, temperature 37 degree C, time incubation 72 h.
`CNC(=O)c1cc(Oc2ccc(NC(=O)Nc3cc(C(F)(F)F)ccc3-n3ccnc3)cc2)ccn1`: the In vitro activity result is “inactive”. As to `CCSc1cc(C)c(C(=O)N=C(N)N)cc1S(C)(=O)=O`, the In vitro activity entry is “inactive”. Take `CC1=C(C(=O)N2CCc3ccc(C(F)(F)F)cc3C2)C2(CCN(C3CCCC3)CC2)OC1=O`: the In vitro activity entry was “inactive”. As for `O=C(O)Cc1ccc(-c2nc(NCc3ccc4c(c3)OCO4)c3c4c(sc3n2)CCCC4)cc1`, the In vitro activity entry is “inactive”. For the molecule `Cc1cc(C(C)C)c(S(C)(=O)=O)cc1C(=O)N=C(N)N`, the In vitro activity entry was “inactive”. With `COc1ccc(CNc2nc(CCCCC(=O)O)nc3sc4ccccc4c23)cc1Cl`, the In vitro activity result is “inactive”.

For the molecule `COc1ccc(CNc2nc(-c3ccc(C(=O)O)cc3)nc3sc4c(c23)CCCC4)cc1Cl`, the In vitro activity entry was “inactive”.

With `COc1cc([S+]([O-])C(C)C)ccc1-c1nc2ccncc2[nH]1` (centres undefined), the In vitro activity result was “inactive”. Turning to `CCN1CCC2(CC1C)OC(=O)C(C)=C2C(=O)N1CCc2ccc(C(F)(F)F)cc2C1` (centres undefined), the In vitro activity entry was “inactive”.

In the case of `CCC(C)[S+]([O-])c1ccc(-c2nc3ccncc3[nH]2)c(OC)c1` (centres undefined), the In vitro activity entry was “inactive”.

On to `O=C(O)CN1C(=O)[C@@]2(NC(=O)N(Cc3cc(Cl)ccc3F)C2=O)c2cc(Cl)ccc21`, for which the In vitro activity entry is “inactive”. The entry for `COc1ccc(C(=O)N2CCCc3cc(C4=NNC(=O)SC4C)ccc32)cc1OC` (centres undefined) is “inactive”. Under `CC(c1ccc2c(c1)CCC2)N1CCN(c2ccccc2)CC1` (centres undefined) stands “inactive”; under `O=C(O)c1ccc(CCN2C(=O)CCN2CCC(O)Cc2cccc(Br)c2)cc1` (centres undefined), “inactive”. Turning to `O=C(O)c1ccc(-c2nc(NCc3ccc4c(c3)OCO4)c3c4c(sc3n2)CCCC4)cc1`, the In vitro activity entry was “inactive”. Turning to `CCCc1nn(C)c2c(=O)[nH]c(-c3cc(S(=O)(=O)Oc4cccnc4)ccc3OCC)nc12`, the In vitro activity entry was “inactive”. Regarding `Cc1c(O)nc(N)nc1-c1cc2ccccc2o1`, the In vitro activity result is “inactive”.

As to `COc1cc(OC)cc(-c2cn3cc(C(=O)NCCc4c(OC)cc(OC)cc4OC)sc3n2)c1`, the In vitro activity result was “inactive”. On to `CCc1cc(Oc2cccnc2)c(S(C)(=O)=O)cc1C(=O)N=C(N)N`, for which the In vitro activity entry was “inactive”. Consider `CCOc1cc(-c2nc(-c3ccc(CN(C)CC(=O)O)c(F)c3)no2)ccc1-c1ccccc1C`, for which the In vitro activity result is “inactive”.

In the case of `O=C(O)Cc1ccc(-c2nc(NCc3ccc4c(c3)OCO4)c3c(n2)sc2ccccc23)cc1`, the In vitro activity result was “inactive”. Take `Cc1cc(-c2ccc[nH]2)c(S(C)(=O)=O)cc1C(=O)N=C(N)N`: the In vitro activity entry was “inactive”.

As for `CC1=C(C(=O)N2CCc3ccc(C(F)(F)F)cc3C2)C2(CCN(C(C)C)CC2)OC1=O`, the In vitro activity result is “inactive”. On to `CCC(C)c1cc(C)c(C(=O)N=C(N)N)cc1S(C)(=O)=O` (centres undefined), for which the In vitro activity entry was “inactive”. In the case of `CCCc1nn(C)c2c(=O)[nH]c(-c3cc(S(=O)(=O)Oc4ccncc4)ccc3OCC)nc12`, the In vitro activity result was “inactive”. Regarding `COc1ccc(N2C[C@H](CN3CCC(O)(c4ccc5c(c4)OCO5)CC3)OC2=O)cc1`, the In vitro activity result was “inactive”.

For `COc1cc(C(=O)Nc2nc(Nc3cccc(C(F)(F)F)c3)n(C)n2)ccc1-n1cnc(C)c1`, the In vitro activity result was “inactive”. Under `Cc1cc(Oc2ccccc2)c(S(C)(=O)=O)cc1C(=O)N=C(N)N` stands “inactive”; under `COCc1cc(-c2nc(-c3ccc(C(=O)O)c(F)c3)no2)ccc1-c1cc(F)ccc1OC`, “inactive”; under `C=CC(C)c1cc(C)c(C(=O)N=C(N)N)cc1S(C)(=O)=O` (centres undefined), “inactive”. Consider `CCN(CCC(=O)O)Cc1cccc(-c2noc(-c3ccc(-c4ccccc4F)c(COC)c3)n2)c1`, for which the In vitro activity result is “inactive”. Take `COc1ccc(C2=NN(C(=O)c3ccc(NC(=O)c4cccnc4)cc3)CCC2)cc1OC1CCCC1`: the In vitro activity entry is “inactive”.

Consider `Cc1sc2nc(N3CCC(C(=O)O)CC3)nc(NCc3ccc4c(c3)OCO4)c2c1Cl`, for which the In vitro activity result is “inactive”. For `O=C(O)c1ccc(-c2nc(NCc3ccc4c(c3)OCO4)c3c(n2)sc2ccccc23)cc1`, the In vitro activity entry was “inactive”. With `COC(=O)c1cc(C(=O)N=C(N)N)c(C)cc1C`, the In vitro activity result is “inactive”. Consider `O=C(O)[C@H]1CC[C@H](c2nc(NCc3ccc4c(c3)OCO4)c3c(n2)sc2ccccc23)CC1`, for which the In vitro activity entry is “inactive”. Turning to `O=C(O)c1ccc(C(=O)Nc2sc3c(c2C(=O)NCc2ccc4c(c2)OCO4)CCCC3)cc1`, the In vitro activity entry is “inactive”. As for `CC1=C(C(=O)N2CCc3ccc(C(F)(F)F)cc3C2)C2(CCN(C3CCCCC3)CC2)OC1=O`, the In vitro activity result is “inactive”. Take `Cc1cc(-n2cccc2)c(S(C)(=O)=O)cc1C(=O)N=C(N)N`: the In vitro activity entry is “inactive”. The entry for `Cc1cc(OC(C)(C)C)c(S(C)(=O)=O)cc1C(=O)N=C(N)N` is “inactive”; for `Cc1ccc(-c2ccccc2)cc1C(=O)N=C(N)N` it is “inactive”; for `CC1=C(C(=O)N2CCc3ncc(C(F)(F)F)cc3C2)C2(CCN(C3CCC(O)CC3)CC2)OC1=O` (centres undefined) it is “inactive”.

`Cc1cc(Oc2cccnc2)c([N+](=O)[O-])cc1C(=O)N=C(N)N`: the In vitro activity entry was “inactive”.

`O=C(O)C1CCN(c2nc(NCc3ccc4c(c3)OCO4)c3c4c(sc3n2)CCCC4)CC1`: the In vitro activity entry is “inactive”. Regarding `CCCCc1nc2ccn(Cc3ccccc3C(=O)OCC)c(=O)c2n1Cc1ccc(-c2ccccc2-c2nn[nH]n2)cc1`, the In vitro activity result was “inactive”. Under `CC(Sc1nc(-c2ccc(Cl)cc2)c(-c2ccc(Cl)cc2)o1)C(=O)NCC(=O)O` (centres undefined) stands “inactive”; under `CC1=C(C(=O)N2CCc3ccc(C(F)(F)F)cc3C2)C2(CCN(C3CCOC(C)C3)CC2)OC1=O` (centres undefined), “inactive”. Under `Cc1cc(C2CCCC2)c(S(C)(=O)=O)cc1C(=O)N=C(N)N` stands “inactive”; under `COc1ccc(OC)c(-c2cn3cc(C(=O)NCCc4cc(OC)c5c(c4OC)OCO5)sc3n2)c1`, “inactive”; under `O=C(O)c1cn(Cc2ccc(-n3cccn3)cc2)c2c(F)ccc(F)c2c1=O`, “inactive”. For `O=C(O)[C@H]1CC[C@H](c2nc(NCc3ccc4c(c3)OCO4)c3c4c(sc3n2)CCCC4)CC1`, the In vitro activity entry was “inactive”. In the case of `COc1ccc(C2=NN(C(=O)c3ccc(NC(=O)c4ccncc4)cc3)CCC2)cc1OC1CCCC1`, the In vitro activity result is “inactive”. For the molecule `CCCc1nn(C)c2c(=O)[nH]c(-c3cc(C(=O)N=C(N)N)ccc3OCC)nc12`, the In vitro activity entry was “inactive”. For the molecule `COc1cc(OC)c(CCNC(=O)c2cn3cc(-c4cc(OCC(N)=O)ccc4OC)nc3s2)c(OC)c1`, the In vitro activity result is “inactive”. With `O=C(Nc1ccc(Oc2ccncc2)cc1)Nc1cc(C(F)(F)F)ccc1-n1cncn1`, the In vitro activity entry is “inactive”.

For `COCc1cc(-c2nc(-c3ccc(CN(C)CC(=O)O)c(F)c3)no2)ccc1-c1cccc(F)c1C`, the In vitro activity result was “inactive”.

As for `CCOC(=O)Nc1ccc(C(=O)N2CCCC(c3ccc(OC)c(OCC)c3)=N2)cc1`, the In vitro activity entry is “inactive”. In the case of `CCNC1=N[C@@H]2[C@@H](O)[C@H](O)[C@@H](Cn3cc(COc4ccc(C)cc4)nn3)O[C@@H]2S1`, the In vitro activity result is “inactive”. Turning to `CCc1ccccc1N/C=C1\C(=O)N(c2ccc(S(=O)(=O)O)cc2)N=C1C`, the In vitro activity result was “inactive”. `Cc1cc(-c2cccs2)c(S(C)(=O)=O)cc1C(=O)N=C(N)N`: the In vitro activity entry was “inactive”. In the case of `CCCCC[C@H](O)/C=C/[C@H]1CCC(=O)N1CCc1ccc(C(=O)O)cc1`, the In vitro activity entry was “inactive”. As to `CC1=C(C(=O)N2COc3ccc(C(F)(F)F)cc3C2)C2(CCN(C(C)C)CC2)OC1=O`, the In vitro activity entry was “inactive”. The entry for `COc1ccc(OCC(N)=O)cc1-c1cn2cc(C(=O)NCCc3c(OC)cccc3OC)sc2n1` is “inactive”. The entry for `CCCSc1cc(C)c(C(=O)N=C(N)N)cc1S(C)(=O)=O` is “inactive”; for `CN(C)c1cccc2c(S(=O)(=O)Nc3ccc4nsnc4c3)cccc12` it is “inactive”.

As for `CCCCc1nc2ccn(CC(=O)N3CCCCC3)c(=O)c2n1Cc1ccc(-c2ccccc2S(=O)(=O)NC(=O)OCc2ccccc2)cc1F`, the In vitro activity entry is “inactive”. For `O=C(O)c1ccc2[nH]cc(CCCCN3CC=C(c4ccccc4)CC3)c2c1`, the In vitro activity entry is “inactive”. Take `CCOC(=O)c1ccc(C2=CSC3=Nc4ccccc4CCN23)cc1`: the In vitro activity entry is “inactive”. Under `Cc1cc2c(cc1C(=O)N=C(N)N)S(=O)(=O)CCC2C` (centres undefined) stands “inactive”. Regarding `CC1=C(C(=O)N2CCc3ccc(C(F)(F)F)cc3C2)C2(CCN(C3CCOC(C)(C)C3)CC2)OC1=O` (centres undefined), the In vitro activity result is “inactive”.

As for `CC1(C)Oc2ccc(C#N)cc2[C@H](n2ccccc2=O)[C@H]1O`, the In vitro activity result is “inactive”. Turning to `CCOc1cc(-c2nc(-c3ccc(CN(C)CC(=O)O)cc3)no2)ccc1-c1ccccc1C`, the In vitro activity result was “inactive”. The entry for `CO[C@@H]1COCC[C@@H]1N1CCC2(CC1)OC(=O)C(C)=C2C(=O)N1CCc2ccc(C(F)(F)F)cc2C1` is “inactive”; for `Cn1nc(O[C@@H]2c3cc(C#N)ccc3OC(C)(C)[C@H]2O)ccc1=O` it is “inactive”; for `COCc1cc(-c2nc(-c3cccc(CN(C)CC(=O)O)c3)no2)ccc1-c1ccccc1C` it is “inactive”. Take `COc1ccc(OC)c(Nc2nc3ccccc3nc2NS(=O)(=O)Cc2cccnc2)c1`: the In vitro activity result was “inactive”. Consider `COc1ccc(C(=O)N2CCC(C)(C)c3cc(C4=NNC(=O)SC4C)ccc32)cc1OC` (centres undefined), for which the In vitro activity result was “inactive”. Under `COc1cc(C(=O)NCc2cn(Cc3ccc(Cl)c(Cl)c3)nn2)ccc1-c1ccnc(C)c1` stands “inactive”; under `COc1ccc(OC)c(CCNC(=O)c2cn3cc(-c4cc(OC)ccc4OC)nc3s2)c1`, “inactive”.

The record behind these values is ChEMBL document CHEMBL5441142, “Probing the Merck KGaA Open Global health library for novel starting points for anti-schistosomal drug discovery” (2024).
